According to patent publication US8993542B2, “Methods of treating viral infections” (priority 2008, dated 2015):

Experiments:
HIV = experiment: microbe, parasite or virus in culture; type: cell-based
HIV-1IIIB = experiment: Two-drug combination antiviral assay in CEM cells (CPE), MacSynergy II; type: cell-based; settings: in combination with CMX157, CEM-SS cells, 95% confidence

## Nc1nc(NC2CC2)c2ncn([C@H]3C=C[C@@H](CO)C3)c2n1 [ABC, abacavir]
HIV; Human immunodeficiency virus 1, PANEL 1, WT
  IC50: 1.52 µM
HIV; Human immunodeficiency virus 1, PANEL 2, WT
  IC50: 1.67 µM
HIV; Human immunodeficiency virus 1, PANEL 3, 6 TAMs, no 184
  IC50: 7.87 µM
HIV; Human immunodeficiency virus 1, PANEL 6, 6 TAMs + 184
  IC50: 14 µM
HIV; Human immunodeficiency virus 1, PANEL 7, 184V
  IC50: 4.78 µM
HIV; Human immunodeficiency virus 1, PANEL 9, 69ins, no 184
  IC50: 32.6 µM
HIV; Human immunodeficiency virus 1, PANEL 12, 69ins + 184
  IC50: 46.5 µM
HIV; Human immunodeficiency virus 1, PANEL 14, 65R, no 184
  IC50: 5.69 µM
HIV; Human immunodeficiency virus 1, PANEL 15, 65R + 184V
  IC50: 11.8 µM
HIV; Human immunodeficiency virus 1, PANEL 17, L74V
  IC50: 3.36 µM
HIV; Human immunodeficiency virus 1, PANEL 19, L74V + M184V
  IC50: 9.24 µM
HIV; Human immunodeficiency virus 1, PANEL 26, 151M, no 184
  IC50: 34.3 µM
HIV; Human immunodeficiency virus 1, PANEL 28, 151M + 184
  IC50: > 52 µM
HIV; Human immunodeficiency virus 1, PANEL 29, L74V − SDM
  IC50: 3.29 µM
HIV; Human immunodeficiency virus 1, PANEL 30, M184V − SDM
  IC50: 4.68 µM
HIV; Human immunodeficiency virus 1, PANEL 31, K65R − SDM
  IC50: 4.56 µM
HIV; Human immunodeficiency virus 1, PANEL 33, T215Y
  IC50: 3.67 µM
HIV; Human immunodeficiency virus 1, PANEL 34, T215Y + M184V
  IC50: 7.61 µM
HIV; Human immunodeficiency virus 1, PANEL 35, M41L + T215Y
  IC50: 3.36 µM
HIV; Human immunodeficiency virus 1, PANEL 37, M41L + T215Y + M184V
  IC50: 9.6 µM
HIV; Human immunodeficiency virus 1, PANEL 38, M41L + L210W + T215Y
  IC50: 4.97 µM
HIV; Human immunodeficiency virus 1, PANEL 39, M41L + L210W + T215Y
  IC50: 4.19 µM
HIV; Human immunodeficiency virus 1, PANEL 40, M41L + L210W + T215Y + M184V
  IC50: 8.17 µM
HIV; Human immunodeficiency virus 1, PANEL 41, M41L + L210W + T215Y + M184V
  IC50: 8.92 µM
HIV; Human immunodeficiency virus 1, PANEL 42, D67N + K70R
  IC50: 2.48 µM
HIV; Human immunodeficiency virus 1, PANEL 44, D67N + K70R + T215F + K219E + M184V
  IC50: 7.73 µM
HIV; Human immunodeficiency virus 1, PANEL 45, L210W + T215Y
  IC50: 3.64 µM
HIV; Human immunodeficiency virus 1, PANEL 46, D67N + K70E
  IC50: 2.42 µM
HIV; Human immunodeficiency virus 1, PANEL 47, D67N + K70E + M184V
  IC50: 5.05 µM
HIV; Human immunodeficiency virus 1, PANEL 48, K70E + M184V
  IC50: 10.4 µM
HIV; PANEL 1, WT
  IC50 Fold Change: 0.86
HIV; PANEL 2, WT
  IC50 Fold Change: 0.94
HIV; PANEL 3, 6 TAMs, no 184
  IC50 Fold Change: 4.43
HIV; PANEL 6, 6 TAMs + 184
  IC50 Fold Change: 7.91
HIV; PANEL 7, 184V
  IC50 Fold Change: 2.69
HIV; PANEL 9, 69ins, no 184
  IC50 Fold Change: 18.00
HIV; PANEL 12, 69ins + 184
  IC50 Fold Change: 26.00
HIV; PANEL 14, 65R, no 184
  IC50 Fold Change: 3.20
HIV; PANEL 15, 65R + 184V
  IC50 Fold Change: 6.64
HIV; PANEL 17, L74V
  IC50 Fold Change: 1.89
HIV; PANEL 19, L74V + M184V
  IC50 Fold Change: 5.21
HIV; PANEL 26, 151M, no 184
  IC50 Fold Change: 19.00
HIV; PANEL 28, 151M + 184
  IC50 Fold Change: >29.2959
HIV; PANEL 29, L74V − SDM
  IC50 Fold Change: 1.85
HIV; PANEL 30, M184V − SDM
  IC50 Fold Change: 2.64
HIV; PANEL 31, K65R − SDM
  IC50 Fold Change: 2.57
HIV; PANEL 33, T215Y
  IC50 Fold Change: 2.06
HIV; PANEL 34, T215Y + M184V
  IC50 Fold Change: 4.29
HIV; PANEL 35, M41L + T215Y
  IC50 Fold Change: 1.89
HIV; PANEL 37, M41L + T215Y + M184V
  IC50 Fold Change: 5.41
HIV; PANEL 38, M41L + L210W + T215Y
  IC50 Fold Change: 2.80
HIV; PANEL 39, M41L + L210W + T215Y
  IC50 Fold Change: 2.36
HIV; PANEL 40, M41L + L210W + T215Y + M184V
  IC50 Fold Change: 4.60
HIV; PANEL 41, M41L + L210W + T215Y + M184V
  IC50 Fold Change: 5.02
HIV; PANEL 42, D67N + K70R
  IC50 Fold Change: 1.40
HIV; PANEL 44, D67N + K70R + T215F + K219E + M184V
  IC50 Fold Change: 4.36
HIV; PANEL 45, L210W + T215Y
  IC50 Fold Change: 2.05
HIV; PANEL 46, D67N + K70E
  IC50 Fold Change: 1.36
HIV; PANEL 47, D67N + K70E + M184V
  IC50 Fold Change: 2.85
HIV; PANEL 48, K70E + M184V
  IC50 Fold Change: 5.88
HIV-1IIIB
  Antagonism Volume, Result 1: −35.8 nM^2 %, μM^2 % or nMμM %
  Antagonism Volume, Result 2: −2.32 nM^2 %, μM^2 % or nMμM %
  Antagonism Volume, Result 3: −12.1 nM^2 %, μM^2 % or nMμM %
  Mean Antagonism Volume (n = 3): −16.7 nM^2 %, μM^2 % or nMμM %
  Mean Synergy Volume (n = 3): 14.9 nM^2 %, μM^2 % or nMμM %
  Synergy Volume, Result 1: 25.1 nM^2 %, μM^2 % or nMμM %
  Synergy Volume, Result 2: 0 nM^2 %, μM^2 % or nMμM %
  Synergy Volume, Result 3: 19.7 nM^2 %, μM^2 % or nMμM %
